Values quoted from earlier work as cited in patent US20230345944A1, “Purified and Enhanced Hydrogen Peroxide Disinfecting Solution for the Rapid Inactivation of COVID-19 and Other Pathogens” (Alira Health Boston LLC, priority 2021, published 2023).

Tested on: bacteria
Conditions: hydrogen peroxide on its own

Structure (SMILES): OO [hydrogen peroxide]
- minimal inhibitory concentration (MIC): about 1 mM
